{
  "source": "patent EP0308783A2",
  "about": "“Antimycotic preparations” (BAYER AG, priority 1987, dated 1989)",
  "experiment_in_all_cases": "antimycotic in-vitro activity, serial dilution test",
  "format_in_all_cases": "cell-based",
  "key": {"[1]": {"tested_on": "Aspergillus fumigatus", "conditions": "Sabouraud's milieu d'epreuve, 28°C to 37 C, 96 hours, inoculum 5 x 10^3 to 10^4 germs/ml, read-out: MHK-Werte in µg/ml Närmedium Aspergillus fumigatus", "protocol": "(§1) Die in-vitro-Prüfungen wurden im Reihenverdünnungstest mit Keiminokula von durchschnittlich 5 x 10^3 bis 10^4 Keimen/mi Substrat durchgeführt. Als Nährmedium dienten • a) für Dermatophyten und Schimmelpilze: Sabouraud's milieu d'epreuve • b) für Hefen: Fleischextrakt-Traubenzucker-Bouillon.\n(§2) Die Bebrütungstemperatur betrug 28°C bis 37 C, die Bebrütungsdauer lag bei 24 bis 96 Stunden bei Hefen und 96 Stunden bei Dermatophyten und Schimmelpilzen."}, "[2]": {"tested_on": "Candida albicans", "conditions": "Fleischextrakt-Traubenzucker-Bouillon, 28°C to 37 C, 24 to 96 hours, inoculum 5 x 10^3 to 10^4 germs/ml, read-out: MHK-Werte in µg/ml Närmedium Candida albicans", "protocol": "as §1, §2"}, "[3]": {"tested_on": "Torulopsis glabrata", "conditions": "Nakaseomyces glabratus; Fleischextrakt-Traubenzucker-Bouillon; 28°C to 37 C; 24 to 96 hours; inoculum 5 x 10^3 to 10^4 germs/ml; read-out: MHK-Werte in µg/ml Närmedium Torulopsis glabrata", "protocol": "as §1, §2"}, "[4]": {"tested_on": "Trichophyton mentagr.", "conditions": "Sabouraud's milieu d'epreuve, 28°C to 37 C, 96 hours, inoculum 5 x 10^3 to 10^4 germs/ml, read-out: MHK-Werte in µg/ml Närmedium Trichophyton mentagr.", "protocol": "as §1, §2"}, "[5]": {"tested_on": "Microsporum canis", "conditions": "Sabouraud's milieu d'epreuve, 28°C to 37 C, 96 hours, inoculum 5 x 10^3 to 10^4 germs/ml, read-out: MHK-Werte in µg/ml Närmedium Microsporum canis", "protocol": "as §1, §2"}},
  "data": [
    {"smiles": "OC(Cn1cncn1)(c1ccc(Cl)cc1)C1(Oc2ccc(Cl)cc2Cl)CC1", "note": "(stereo not drawn) [(B), 1-(4-Chlorphenyl)-1-[1-(2,4-dichiorphenoxy)-cycloprop-1-yl]-2-(1,2,4-triazol-1-yl)-ethan-1-ol]", "values": [
      {"measurement": "MIC", "setting": "[1]", "result": "> 64", "unit": "µg/mL"},
      {"measurement": "MIC", "setting": "[2]", "result": 16, "unit": "µg/mL"},
      {"measurement": "MIC", "setting": "[3]", "result": 64, "unit": "µg/mL"},
      {"measurement": "MIC", "setting": "[4]", "result": 64, "unit": "µg/mL"}
    ]},
    {"smiles": "OC(COc1ccc(Cl)cc1)(Cn1cncn1)C1(Cl)CC1", "note": "(stereo not drawn) [Beispiel 1, 2-(1-Chlorcyclopropyl)-1-(4-chlorphenoxy)-3-(1,2,4-triazol-1-yl)-propan-2-ol]", "values": [
      {"measurement": "MIC", "setting": "[1]", "result": 2, "unit": "µg/mL"},
      {"measurement": "MIC", "setting": "[2]", "result": 16, "unit": "µg/mL"},
      {"measurement": "MIC", "setting": "[5]", "result": "< 1", "unit": "µg/mL"},
      {"measurement": "MIC", "setting": "[3]", "result": 16, "unit": "µg/mL"},
      {"measurement": "MIC", "setting": "[4]", "result": "< 1", "unit": "µg/mL"}
    ]},
    {"smiles": "OC(Cn1cncn1)(c1ccc(Cl)cc1)C1(F)CC1", "note": "(stereo not drawn) [(A), 1-(4-Chlorphenyl)-1-(1-fluor-cycloprop-1-yl)-2-(1,2,4-triazol-1-yl)-ethan-1-ol]", "values": [
      {"measurement": "MIC", "setting": "[1]", "result": "> 64", "unit": "µg/mL"},
      {"measurement": "MIC", "setting": "[2]", "result": "> 64", "unit": "µg/mL"},
      {"measurement": "MIC", "setting": "[4]", "result": "> 64", "unit": "µg/mL"}
    ]}
  ]
}
